“And” between values parts separate entries of the source, which are not always exact repeats. Identical values can stand only once. Toxic doses and inconclusive results are not listed.
Tested on: P388 leukemia ip, CD2F1 mice, survival T/C
Experiment: NCI In Vivo Anticancer Drug Screen. Data for tumor model P388 Leukemia (intraperitoneal) in CD2F1 (CDF1) mice
Conditions: endpoint: median survival time, higher = longer survival
In short: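 Mice carrying the transplanted tumor received test compound or vehicle. Survival was recorded in each group, and the value is the treated-group measurement divided by that of the vehicle-treated control group.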

[1] = dose: 50.0 mg/kg/injection, schedule: Q01DX005 (ip), vehicle: saline with Tween-80
[2] = dose: 100.0 mg/kg/injection, schedule: Q01DX005 (ip), vehicle: saline with Tween-80
[3] = dose: 200.0 mg/kg/injection, schedule: Q01DX005 (ip), vehicle: saline with Tween-80
[4] = dose: 50.0 mg/kg/injection, schedule: Q01DX009 (ip), vehicle: saline with Tween-80
[5] = dose: 25.0 mg/kg/injection, schedule: Q04DX003 (ip), vehicle: saline
[6] = dose: 50.0 mg/kg/injection, schedule: Q04DX003 (ip), vehicle: saline
[7] = dose: 12.5 mg/kg/injection, schedule: Q01DX009 (ip), vehicle: saline with Tween-80
[8] = dose: 25.0 mg/kg/injection, schedule: Q01DX009 (ip), vehicle: saline with Tween-80
[9] = dose: 100.0 mg/kg/injection, schedule: Q04DX003 (ip), vehicle: saline with Tween-80
[10] = dose: 200.0 mg/kg/injection, schedule: Q04DX003 (ip), vehicle: saline with Tween-80

COC(=O)C(C)NC(=O)c1c2nc3c(C(=O)NC(C)C(=O)OC)ccc(C)c3oc-2c(C)c(=O)c1N (configuration not stated)
T/C (dose: 3.12 mg/kg/injection, schedule: Q01DX005 (ip), vehicle: distilled water + Tween-80): 100 % of control
T/C (dose: 3.12 mg/kg/injection, schedule: Q01DX005 (ip), vehicle: saline with Tween-80): 98 % of control
T/C (dose: 6.25 mg/kg/injection, schedule: Q01DX005 (ip), vehicle: distilled water + Tween-80): 100 % of control and 102 % of control
T/C (dose: 6.25 mg/kg/injection, schedule: Q01DX005 (ip), vehicle: saline with Tween-80): 97 % of control
T/C (dose: 12.5 mg/kg/injection, schedule: Q01DX005 (ip), vehicle: distilled water + Tween-80): 96 % of control
T/C (dose: 12.5 mg/kg/injection, schedule: Q01DX005 (ip), vehicle: saline with Tween-80): 87 % of control and 92 % of control
T/C (dose: 25.0 mg/kg/injection, schedule: Q01DX005 (ip), vehicle: distilled water + Tween-80): 89 % of control and 94 % of control
T/C (dose: 50.0 mg/kg/injection, schedule: Q01DX005 (ip), vehicle: distilled water + Tween-80): 90 % of control
T/C [1]: 89 % of control
T/C [2]: 89 % of control
T/C [3]: 92 % of control

O=C(CN1C(=O)c2ccccc2C1=O)NC(Cc1ccccc1)C(=O)O (configuration not stated)
T/C [4]: 95 % of control
T/C (dose: 100.0 mg/kg/injection, schedule: Q01DX009 (ip), vehicle: saline with Tween-80): 105 % of control
T/C (dose: 200.0 mg/kg/injection, schedule: Q01DX009 (ip), vehicle: saline with Tween-80): 102 % of control
T/C (dose: 400.0 mg/kg/injection, schedule: Q01DX009 (ip), vehicle: saline with Tween-80): 95 % of control

C=C1C(=O)OC2C3[C@@]4(C)O[C@H]4[C@H]4O[C@@]34[C@](C)(O)CC(OC(C)=O)[C@@H]12 (some centres not stated)
T/C (dose: 1687.5 micrograms/kg/injection, schedule: Q01DX005 (ip), vehicle: Klucel (hydroxypropylcellulose) (HPC)): 104 % of control
T/C (dose: 3375.0 micrograms/kg/injection, schedule: Q01DX005 (ip), vehicle: Klucel (hydroxypropylcellulose) (HPC)): 108 % of control
T/C (dose: 6750.0 micrograms/kg/injection, schedule: Q01DX005 (ip), vehicle: Klucel (hydroxypropylcellulose) (HPC)): 100 % of control
T/C (dose: 13500.0 micrograms/kg/injection, schedule: Q01DX005 (ip), vehicle: Klucel (hydroxypropylcellulose) (HPC)): 106 % of control

CC(C)COCCCN
T/C (dose: 12.5 mg/kg/injection, schedule: Q01DX009 (ip), vehicle: saline): 100 % of control
T/C (dose: 12.5 mg/kg/injection, schedule: Q04DX003 (ip), vehicle: saline): 91 % of control
T/C (dose: 25.0 mg/kg/injection, schedule: Q01DX009 (ip), vehicle: saline): 100 % of control
T/C [5]: 100 % of control
T/C (dose: 50.0 mg/kg/injection, schedule: Q01DX009 (ip), vehicle: saline): 100 % of control
T/C [6]: 91 % of control

S=c1nc(-c2ccccn2)c(-c2ccccn2)n[nH]1
T/C [1]: 116 % of control and 117 % of control
T/C [2]: 121 % of control
T/C [3]: 119 % of control and 120 % of control
T/C (dose: 400.0 mg/kg/injection, schedule: Q01DX005 (ip), vehicle: saline with Tween-80): 120 % of control

Fc1ccc(NC(=S)SCc2ccc(Cl)cc2)c(F)c1
T/C (dose: 50.0 mg/kg/injection, schedule: Q01DX009 (ip), vehicle: suspension in saline): 93 % of control
T/C (dose: 100.0 mg/kg/injection, schedule: Q01DX009 (ip), vehicle: suspension in saline): 100 % of control
T/C (dose: 200.0 mg/kg/injection, schedule: Q01DX009 (ip), vehicle: suspension in saline): 100 % of control

C/C(=N\N=P(c1ccccc1)(c1ccccc1)c1ccccc1)C(C)(C)C
T/C (dose: 6.25 mg/kg/injection, schedule: Q01DX009 (ip), vehicle: Klucel (hydroxypropylcellulose) (HPC)): 100 % of control
T/C (dose: 12.5 mg/kg/injection, schedule: Q01DX009 (ip), vehicle: Klucel (hydroxypropylcellulose) (HPC)): 95 % of control
T/C (dose: 25.0 mg/kg/injection, schedule: Q01DX009 (ip), vehicle: Klucel (hydroxypropylcellulose) (HPC)): 94 % of control

O=C1C(Cl)=C(c2ccccc2)C(=O)C(Cl)=C1c1ccccc1
T/C [7]: 100 % of control
T/C [8]: 109 % of control
T/C [4]: 109 % of control

O=C(CC(NC(=O)OCc1ccccc1)C(=O)O)OCc1ccccc1 (configuration not stated)
T/C (dose: 100.0 mg/kg/injection, schedule: Q04DX003 (ip), vehicle: saline sonified): 110 % of control
T/C (dose: 200.0 mg/kg/injection, schedule: Q04DX003 (ip), vehicle: saline sonified): 105 % of control

N#Cc1c(O)c2c(c(O)c1C#N)C(=O)c1ccccc1C2=O
T/C [1]: 97 % of control
T/C [2]: 95 % of control
T/C [3]: 92 % of control

OC1C=C(c2ccccc2)C(O)(c2ccccc2)C1 (configuration not stated)
T/C (dose: 50.0 mg/kg/injection, schedule: Q01DX009 (ip), vehicle: Klucel (hydroxypropylcellulose) (HPC)): 100 % of control
T/C (dose: 100.0 mg/kg/injection, schedule: Q01DX009 (ip), vehicle: Klucel (hydroxypropylcellulose) (HPC)): 100 % of control
T/C (dose: 200.0 mg/kg/injection, schedule: Q01DX009 (ip), vehicle: Klucel (hydroxypropylcellulose) (HPC)): 92 % of control

CC(C)(C)N1C(=O)[N+](C)(CCCCCC[N+]2(C)N=C([O-])N(C(C)(C)C)C2=O)N=C1[O-] (configuration not stated)
T/C [9]: 95 % of control
T/C [10]: 100 % of control
T/C (dose: 400.0 mg/kg/injection, schedule: Q04DX003 (ip), vehicle: saline with Tween-80): 108 % of control

Nc1nc(Cl)nc2c1ncn2C1OC(CO)C(O)C1F (configuration not stated)
T/C (dose: 12.5 mg/kg/injection, schedule: Q01DX005 (ip), vehicle: saline): 122 % of control
T/C (dose: 200.0 mg/kg/injection, schedule: Q01DX005 (ip), vehicle: saline): 159 % of control

Brc1cnc2nc(-c3cccc4ccccc34)[nH]c2c1
T/C (dose: 100.0 mg/kg/injection, schedule: Q01DX001 (ip), vehicle: saline with Tween-80): 96 % of control
T/C (dose: 200.0 mg/kg/injection, schedule: Q01DX001 (ip), vehicle: saline with Tween-80): 94 % of control
T/C (dose: 400.0 mg/kg/injection, schedule: Q01DX001 (ip), vehicle: saline with Tween-80): 91 % of control

CCOC(=O)c1c(C)[nH]c(-c2ccccc2)c1NS(=O)(=O)c1ccc(NC(C)=O)cc1
T/C (dose: 60.0 mg/kg/injection, schedule: Q01DX005 (ip), vehicle: saline with Tween-80): 106 % of control
T/C (dose: 120.0 mg/kg/injection, schedule: Q01DX005 (ip), vehicle: saline with Tween-80): 93 % of control
T/C (dose: 240.0 mg/kg/injection, schedule: Q01DX005 (ip), vehicle: saline with Tween-80): 99 % of control

CCc1ccc(NC2=NCCO2)cc1
T/C [7]: 100 % of control
T/C [8]: 105 % of control
T/C [4]: 100 % of control

C=C(C)C1CCc2c(C)cc(OC(C)=O)c(C(=O)OC(C)=O)c2C1 (configuration not stated)
T/C (dose: 5.0 mg/kg/injection, schedule: Q01DX005 (ip), vehicle: saline): 107 % of control
T/C (dose: 10.0 mg/kg/injection, schedule: Q01DX005 (ip), vehicle: saline): 105 % of control
T/C (dose: 20.0 mg/kg/injection, schedule: Q01DX005 (ip), vehicle: saline): 105 % of control

Cc1ccc(C(SCC(N)C(=O)O)(c2ccccc2)c2ccc(C)cc2)cc1 (configuration not stated)
T/C (dose: 50.0 mg/kg/injection, schedule: Q04DX003 (ip), vehicle: saline with Tween-80): 186 % of control
T/C [9]: 200 % of control
T/C (dose: 132.0 mg/kg/injection, schedule: Q04DX003 (ip), vehicle: saline with Tween-80): 172 % of control
T/C [10]: 177 % of control and 200 % of control
T/C (dose: 300.0 mg/kg/injection, schedule: Q04DX003 (ip), vehicle: saline with Tween-80): 263 % of control

C=C1C[C@](OC)([C@H](O)C(=O)N[C@@H](OC)[C@@H]2C[C@@H](O)C(C)(C)[C@@H](C[C@@H](COC)OC)O2)O[C@H](C)[C@@H]1C
T/C (dose: 6.2 micrograms/kg/injection, schedule: Q01DX005 (ip), vehicle: Klucel (hydroxypropylcellulose) (HPC)): 153 % of control
T/C (dose: 12.5 micrograms/kg/injection, schedule: Q01DX005 (ip), vehicle: Klucel (hydroxypropylcellulose) (HPC)): 152 % of control
T/C (dose: 25.0 micrograms/kg/injection, schedule: Q01DX005 (ip), vehicle: Klucel (hydroxypropylcellulose) (HPC)): 161 % of control and 162 % of control
T/C (dose: 50.0 micrograms/kg/injection, schedule: Q01DX005 (ip), vehicle: Klucel (hydroxypropylcellulose) (HPC)): 152 % of control

CC(C)NC(C)C(C)c1ccccc1 (configuration not stated)
T/C [5]: 99 % of control
T/C (dose: 50.0 mg/kg/injection, schedule: Q01DX001 (ip), vehicle: saline): 94 % of control
T/C [6]: 100 % of control
T/C (dose: 100.0 mg/kg/injection, schedule: Q01DX001 (ip), vehicle: saline): 96 % of control
T/C (dose: 100.0 mg/kg/injection, schedule: Q04DX003 (ip), vehicle: saline): 93 % of control
